Source: a compilation of properties of binary mixtures (doi:10.1007/s10973-018-7427-0)

Experiment: xn = mol fraction of the nth substance listed
Conditions: 100 kPa

CCCC[n+]1ccn(C)c1.F[P-](F)(F)(F)(F)F + C=CN1CCCC1=O
x1 = 1
Conditions | speed of sound [m/s]
298.15 K | 1443.8
303.15 K | 1431.7
308.15 K | 1419.8
313.15 K | 1408.2
318.15 K | 1396.8
323.15 K | 1385.6

C=CN1CCCC1=O + CCCC[n+]1ccn(C)c1.F[P-](F)(F)(F)(F)F
speed of sound [m/s]
Conditions | x2 = 0 | x2 = 0.1011 | x2 = 0.2059 | x2 = 0.3019 | x2 = 0.3937 | x2 = 0.5023 | x2 = 0.584 | x2 = 0.6946 | x2 = 0.7788 | x2 = 0.8707
298.15 K | 1521.5 | – | 1506 | 1496.4 | 1487.8 | 1477.6 | 1470.5 | 1461.5 | 1455.7 | 1449.9
303.15 K | – | 1498.9 | 1490.1 | – | 1473.5 | 1463.9 | 1457.4 | 1449.1 | 1443.4 | 1437.9
308.15 K | 1483.7 | 1481.8 | – | – | 1459.2 | 1450.2 | 1444.3 | – | 1431.1 | 1425.8
313.15 K | 1465 | 1464.7 | 1458.3 | – | 1444.9 | – | 1431.2 | – | 1419 | 1414
318.15 K | 1446.5 | – | – | 1436.6 | 1430.9 | 1423.4 | 1418.4 | 1411.6 | 1407 | 1402.3
323.15 K | – | 1431.1 | – | – | 1416.9 | 1410.2 | 1405.7 | 1399.4 | 1395.1 | 1390.8
